Values after ≈ are worked out from the molar mass of the structure shown.
How the values were obtained:
Assay type in all cases: cell-based
M. suipneumoniae JF 435 = assay: Anti-mycoplasmal in vitro MIC; settings: Mesomycoplasma hyopneumoniae, JF435, 144 h, Friis broth solidified with 0.9% agarose, 6 days incubation at 37°C
[1] = system: M. hyosynoviae ATCC 25591; assay: Anti-mycoplasmal in vitro MIC; settings: 144 h, Friis broth solidified with 0.9% agarose, 6 days incubation at 37°C
S. typhimurium S18 = assay: Veterinary bacteria MIC; settings: Salmonella enterica, Diagnostic Sensitivity Test Agar, 18 hours at 37°C
Description: (§1) The values were determined using a two fold serial dilutions.in Diagnostic Sensitivity Test Agar with an inoculum of 10^4 organisms and incubation for 18 hours at 37°C.

E. Coli E1 = assay: Veterinary bacteria MIC; settings: Escherichia coli, Diagnostic Sensitivity Test Agar, 18 hours at 37°C
Description: as §1

Staph. aureus B4 = assay: Veterinary bacteria MIC; settings: Staphylococcus aureus, Diagnostic Sensitivity Test Agar, 18 hours at 37°C
Description: as §1

[2] = system: Erysipelothrix rhusiopathiae NCTC 8163; assay: Veterinary bacteria MIC; settings: NCTC8163, Diagnostic Sensitivity Test Agar, 18 hours at 37°C
Description: as §1

[3] = system: Strep. suis (group D) SPS11; assay: Veterinary bacteria MIC; settings: Streptococcus suis, Diagnostic Sensitivity Test Agar, 18 hours at 37°C
Description: as §1

Past. multocida PA1 = assay: Veterinary bacteria MIC; settings: Pasteurella multocida, Diagnostic Sensitivity Test Agar, 18 hours at 37°C
Description: as §1

[4] = system: Corynebacterium pyogenes CY1; assay: Veterinary bacteria MIC; settings: Trueperella pyogenes, Diagnostic Sensitivity Test Agar, 18 hours at 37°C
Description: as §1

Strep. dysgalactiae SPD1 = assay: Veterinary bacteria MIC; settings: Streptococcus dysgalactiae, Diagnostic Sensitivity Test Agar, 18 hours at 37°C
Description: as §1

M. suipneumoniae MS 16 = assay: Anti-mycoplasmal in vitro MIC; settings: Mesomycoplasma hyopneumoniae, MS16, 144 h, Friis broth solidified with 0.9% agarose, 6 days incubation at 37°C
M. hyorhinis ATCC 25021 = assay: Anti-mycoplasmal in vitro MIC; settings: Mesomycoplasma hyorhinis, ATCC25021, 144 h, Friis broth solidified with 0.9% agarose, 6 days incubation at 37°C
M. gallisepticum S6 = assay: Anti-mycoplasmal in vitro MIC; settings: Mycoplasmoides gallisepticum, 144 h, Friis broth solidified with 0.9% agarose, 6 days incubation at 37°C
M. bovis NCTC 10131 = assay: microbe, parasite or virus in culture; settings: NCTC10131, 144 h
M. suipneumoniae NB12 = assay: Anti-mycoplasmal in vitro MIC; settings: Mesomycoplasma hyopneumoniae, 144 h, Friis broth solidified with 0.9% agarose, 6 days incubation at 37°C
Strep. 2788-B = assay: Human bacteria MIC; settings: nutrient agar with 5% chocolated horse blood, 18 hours at 37°C
Description: (§2) The values were determined by serial dilutions in nutrient agar with 5% chocolated horse blood after incubations for 18 hours at 37 °C.

[5] = system: Strep. pyogenes R80/421-A; assay: Human bacteria MIC; settings: Streptococcus pyogenes, nutrient agar with 5% chocolated horse blood, 18 hours at 37°C
Description: as §2

[6] = system: Haemophilus influenzae Wy21; assay: Human bacteria MIC; settings: nutrient agar with 5% chocolated horse blood, 18 hours at 37°C
Description: as §2

[7] = system: M. bovigenitalium ATCC 14173; assay: Anti-mycoplasmal in vitro MIC; settings: 144 h, Friis broth solidified with 0.9% agarose, 6 days incubation at 37°C
Strep. pneumoniae CN33 = assay: Human bacteria MIC; settings: Streptococcus pneumoniae, nutrient agar with 5% chocolated horse blood, 18 hours at 37°C
Description: as §2

[8] = system: Haemophilus influenzae Q1; assay: Human bacteria MIC; settings: nutrient agar with 5% chocolated horse blood, 18 hours at 37°C
Description: as §2

[9] = system: Treponema hyodysenterial P23; assay: Swine dysentery MIC (inhibition of β-haemolysis); settings: 72 h, Strain P23, horse blood agar, 37°C for 3 days, anaerobic, lowest concentration to inhibit β-haemolysis
Description: (§3) The activity of the compounds of Examples 2 and 3 against various strains of Treponema hyodysenterial, associated with swine dysentry, were determined.
(§4) MIC values (µg/ml) of the compounds were determined by incorporating the compounds in horse blood agar, inoculating (multi-point) with 0.001 ml of 3 day growth from base of blood slope (+ 1 ml foetal calf serum) and incubating at 37°C for 3 days under aneorobic conditions (Gas Pak 150). The MIC values were taken as the lowest concentrations to inhibit β-haemolysis.

[10] = system: Treponema hyodysenterial S77/2; assay: Swine dysentery MIC (inhibition of β-haemolysis); settings: 72 h, Strain S77/2, horse blood agar, 37°C for 3 days, anaerobic, lowest concentration to inhibit β-haemolysis
Description: as §3, §4

[11] = system: Treponema hyodysenterial Navis; assay: Swine dysentery MIC (inhibition of β-haemolysis); settings: 72 h, Strain Navis, horse blood agar, 37°C for 3 days, anaerobic, lowest concentration to inhibit β-haemolysis
Description: as §3, §4

[12] = system: Treponema hyodysenterial S77/10; assay: Swine dysentery MIC (inhibition of β-haemolysis); settings: 72 h, Strain S77/10, horse blood agar, 37°C for 3 days, anaerobic, lowest concentration to inhibit β-haemolysis
Description: as §3, §4

[13] = system: Treponema hyodysenterial B10; assay: Swine dysentery MIC (inhibition of β-haemolysis); settings: 72 h, Strain B10, horse blood agar, 37°C for 3 days, anaerobic, lowest concentration to inhibit β-haemolysis
Description: as §3, §4

[14] = system: Treponema hyodysenterial S73/2; assay: Swine dysentery MIC (inhibition of β-haemolysis); settings: 72 h, Strain S73/2, horse blood agar, 37°C for 3 days, anaerobic, lowest concentration to inhibit β-haemolysis
Description: as §3, §4

[15] = system: Treponema hyodysenterial TH3; assay: Swine dysentery MIC (inhibition of β-haemolysis); settings: 72 h, Strain TH3, horse blood agar, 37°C for 3 days, anaerobic, lowest concentration to inhibit β-haemolysis
Description: as §3, §4

SMILES	MIC (M. suipneumoniae JF 435) [µg/mL]	MIC [1] [µg/mL]	MIC (S. typhimurium S18) [µg/mL]	MIC (E. Coli E1) [µg/mL]	MIC (Staph. aureus B4) [µg/mL]	MIC [2] [µg/mL]	MIC [3] [µg/mL]	MIC (Past. multocida PA1) [µg/mL]	MIC [4] [µg/mL]	MIC (Strep. dysgalactiae SPD1) [µg/mL]	MIC (M. suipneumoniae MS 16) [µg/mL]	MIC (M. hyorhinis ATCC 25021) [µg/mL]	MIC (M. gallisepticum S6) [µg/mL]	MIC (M. bovis NCTC 10131) [µg/mL]	MIC (M. suipneumoniae NB12) [µg/mL]	MIC (Strep. 2788-B) [µg/mL]	MIC [5] [µg/mL]	MIC [6] [µg/mL]	MIC [7] [µg/mL]	MIC [8] [µg/mL]	other results
C/C(=C\C(=O)OCc1cccc(C#N)c1)CC1OCC(C/C=C/C(C)C(C)O)C(O)C1O (centres unmarked) [Example 5, m-Cyanobenzyl monate C]	1 (≈ 2.25 µM)	0.5 (≈ 1.13 µM)	> 80	> 80	2.5 (≈ 5.64 µM)	80 (≈ 180 µM)	> 80	10 (≈ 22.5 µM)	> 80	0.156 (≈ 0.352 µM)	0.5 (≈ 1.13 µM)	0.5 (≈ 1.13 µM)	10 (≈ 22.5 µM)	0.05 (≈ 0.113 µM)	0.5 (≈ 1.13 µM)	5 (≈ 11.3 µM)	2.5 (≈ 5.64 µM)	2.5 (≈ 5.64 µM)	0.1 (≈ 0.225 µM)	–	–
C/C(=C\C(=O)OCc1ccccc1C#N)CC1OCC(CC2OC2C(C)C(C)O)C(O)C1O (centres unmarked) [Example 1, o-Cyanobenzyl monate A]	1 (≈ 2.18 µM)	≤ 0.01	> 80	> 80	1.25 (≈ 2.72 µM)	80 (≈ 174 µM)	10 (≈ 21.8 µM)	1.25 (≈ 2.72 µM)	> 80	0.312 (≈ 0.679 µM)	0.5 (≈ 1.09 µM)	0.5 (≈ 1.09 µM)	2.5 (≈ 5.44 µM)	–	0.5 (≈ 1.09 µM)	5 (≈ 10.9 µM)	0.5 (≈ 1.09 µM)	0.25 (≈ 0.544 µM)	≤ 0.01	0.25 (≈ 0.544 µM)	MIC (Strep. pneumoniae CN33): 1 µg/mL (≈ 2.18 µM)
C/C(=C\C(=O)OCc1cccc(C#N)c1)CC1OCC(CC2OC2C(C)C(C)O)C(O)C1O (centres unmarked) [Example 2, m-Cyanobenzyl monate A]	0.1 (≈ 0.218 µM)	0.05 (≈ 0.109 µM)	80 (≈ 174 µM)	80 (≈ 174 µM)	1.25 (≈ 2.72 µM)	20 (≈ 43.5 µM)	2.5 (≈ 5.44 µM)	0.625 (≈ 1.36 µM)	> 80	0.312 (≈ 0.679 µM)	0.05 (≈ 0.109 µM)	0.025 (≈ 0.0544 µM)	2.5 (≈ 5.44 µM)	≤ 0.01	0.05 (≈ 0.109 µM)	–	–	0.1 (≈ 0.218 µM)	≤ 0.01	0.1 (≈ 0.218 µM)	MIC [9]: 10 µg/mL (≈ 21.8 µM); MIC [10]: 10 µg/mL (≈ 21.8 µM); MIC [11]: 10 µg/mL (≈ 21.8 µM); MIC [12]: 10 µg/mL (≈ 21.8 µM); MIC [13]: 10 µg/mL (≈ 21.8 µM); MIC (Strep. pneumoniae CN33): 0.5 µg/mL (≈ 1.09 µM)
C/C(=C\C(=O)OC(C)c1ccc(C#N)cc1)CC1OCC(CC2OC2C(C)C(C)O)C(O)C1O (centres unmarked) [Example 4, 1-(p-Cyanophenyl)ethyl monate A]	1 (≈ 2.11 µM)	0.1 (≈ 0.211 µM)	> 80	> 80	10 (≈ 21.1 µM)	40 (≈ 84.5 µM)	20 (≈ 42.2 µM)	10 (≈ 21.1 µM)	> 80	1.25 (≈ 2.64 µM)	1 (≈ 2.11 µM)	0.5 (≈ 1.06 µM)	10 (≈ 21.1 µM)	≤ 0.01	1 (≈ 2.11 µM)	5 (≈ 10.6 µM)	–	0.5 (≈ 1.06 µM)	0.025 (≈ 0.0528 µM)	0.5 (≈ 1.06 µM)	MIC (Strep. pneumoniae CN33): 2.5 µg/mL (≈ 5.28 µM)
C/C(=C\C(=O)OCc1cc(C#N)cc(C#N)c1)CC1OCC(CC2OC2C(C)C(C)O)C(O)C1O (centres unmarked) [Example 6, 3,5-Dicyanobenzyl monate A]	0.1 (≈ 0.206 µM)	0.1 (≈ 0.206 µM)	> 80	> 80	5 (≈ 10.3 µM)	80 (≈ 165 µM)	40 (≈ 82.6 µM)	5 (≈ 10.3 µM)	> 80	0.625 (≈ 1.29 µM)	0.05 (≈ 0.103 µM)	0.05 (≈ 0.103 µM)	2.5 (≈ 5.16 µM)	0.025 (≈ 0.0516 µM)	0.1 (≈ 0.206 µM)	–	1 (≈ 2.06 µM)	–	0.025 (≈ 0.0516 µM)	0.5 (≈ 1.03 µM)	–
C/C(=C\C(=O)OCc1ccc(C#N)cc1)CC1OCC(CC2OC2C(C)C(C)O)C(O)C1O (centres unmarked) [Example 3, p-Cyanobenzyl monate A]	0.25 (≈ 0.544 µM)	< 0.01	80 (≈ 174 µM)	80 (≈ 174 µM)	0.625 (≈ 1.36 µM)	40 (≈ 87 µM)	2.5 (≈ 5.44 µM)	0.625 (≈ 1.36 µM)	> 80	0.156 (≈ 0.339 µM)	0.1 (≈ 0.218 µM)	0.1 (≈ 0.218 µM)	0.25 (≈ 0.544 µM)	< 0.01	0.25 (≈ 0.544 µM)	0.5 (≈ 1.09 µM)	0.1 (≈ 0.218 µM)	–	≤ 0.01	0.1 (≈ 0.218 µM)	MIC [9]: 40 µg/mL (≈ 87 µM); MIC [10]: 10 µg/mL (≈ 21.8 µM); MIC [14]: 5 µg/mL (≈ 10.9 µM); MIC [11]: 10 µg/mL (≈ 21.8 µM); MIC [15]: 5 µg/mL (≈ 10.9 µM); MIC [12]: 10 µg/mL (≈ 21.8 µM); MIC [13]: 20 µg/mL (≈ 43.5 µM); MIC (Strep. pneumoniae CN33): 0.25 µg/mL (≈ 0.544 µM)
